ChEMBL document CHEMBL5543108, “Structure-based design and synthesis of BML284 derivatives: A novel class of colchicine-site noncovalent tubulin degradation agents” (Eur J Med Chem, 2024)

Key:
[1] = tested on: A2780/Taxol; assay: Antiproliferative activity against human A2780T cells assessed as reduction in cell viability measured after 72 hrs; type: functional, cell-based
[2] = tested on: A2780/Taxol; assay: Antitumor activity against human A2780T cells xenografted in mouse model assessed as tumor growth inhibition at 30 mg/kg, ip administered every two days for 18 days relative to control; type: functional; settings: 432 h, time 18 day, read-out: TGI
[3] = tested on: K562; assay: Antiproliferative activity against human K562 cells assessed as reduction in cell viability measured after 72 hrs; type: functional, cell-based; settings: K562, 72 h
[4] = tested on: A549/TR; assay: Antiproliferative activity against paclitaxel resistant human A549T cells assessed as reduction in cell viability measured after 72 hrs; type: functional, cell-based
[5] = tested on: MOLM-13; assay: Antiproliferative activity against human MOLM-13 cells assessed as reduction in cell viability measured after 72 hrs; type: functional, cell-based; settings: MOLM-13, 72 h
[6] = tested on: A2780S; assay: Antitumor activity against human A2780S cells xenografted in mouse model assessed as tumor growth inhibition at 30 mg/kg, ip administered every two days for 12 days relative to control; type: functional; settings: 288 h, time 12 day, read-out: TGI
[7] = tested on: MCF7; assay: cells; settings: Homo sapiens, MCF7, 72 h
Description: Antiproliferative activity against human MCF7 cells assessed as reduction in cell viability measured after 72 hrs

SMILES: CC(=O)O[C@H]1C(=O)[C@@]2(C)[C@H]([C@H](OC(=O)c3ccccc3)[C@]3(O)C[C@H](OC(=O)[C@H](O)[C@@H](NC(=O)c4ccccc4)c4ccccc4)C(C)=C1C3(C)C)[C@]1(OC(C)=O)CO[C@@H]1C[C@@H]2O [PACLITAXEL]
- IC50 [1]: 55900 nM
- inhibition in vivo at 30 mg/kg [2]: 23.2%
- IC50 [3]: 15 nM
- IC50 [4]: 834 nM
- IC50 [5]: 4 nM
- inhibition in vivo at 30 mg/kg [6]: 74.6%
- IC50 [7]: 31.5 nM
